Experimental data reported in US8748423B2, “Compositions and methods for the prevention and treatment of cancer” (Kinex Pharmaceuticals, LLC, priority 2010, dated 2014).
Where “and” joins values, the source holds several entries; their conditions need not be identical. Equal values may be shown once. Entries after “also recorded” stand apart in the source; their conditions may differ. Read-outs that look alike come from different tables or passages of the source.

What was measured:
survivin = assay: additional molecular studies, survivin
[1] = body weight in GL261 glioma survival study; format: in vivo, C57BL/6 mice
Method: The studies were conducted in C57BL/6 mice. GL261 glioma cells (1×10^5 in 5 μl DMEM) were implanted intracranial coordinates: bregma, lateral 2.0 mm, anterior 1.2 mm, 3.0 mm depth dura. Treatment was initiated 3 days post implantation.
FIGS. 2A-F show the weight gain in each of the C57BL/6 mice in the different treatment groups. The average weight at endpoint for each of the treatment groups is shown below in Table 12. FIG. 3 is a graph showing the average weights over a 40-day period for each of the treatment groups.

GL261 glioma [2] = assay: GL261 intracerebral tumors in SCID mice; format: in vivo, B6.CB17-Prkdc^scid/SzJ mice
Excerpt: FIGS. 4A-C are a series of graphs showing the survival of C57BL6 mice with intracerebral GL261 glioma implants. Mice received intracerebral implants of 1×10^5 GL261 cells by stereotactic injection at 2 mm lateral, 1 mm anterior to bregma at 3 mm depth. After 4 days mice began indicated regimen of oral Compound 76. […] Compound 76 extended median survival from 21 to 29 days (range). n=10. […] Compound 76 extended median survival >100 days (range), with up to 60% of drug treated mice experiencing complete tumor regression, n=10. Long term survivors were confirmed tumor free by high field MRI in FIG. 6. […] See high field MRI in FIG. 6
(§1) Compound 76 was also evaluated in the orthotropic GL261 glioma model in immune-competent, syngeneic C57BL/6 mice. Mice implanted intracerebrally with 1×10^5 GL261 cells treated with vehicle alone (saline) have a median survival time (MeST) of 21 days (range 18-28). Mice treated by oral Compound 76 (30 mg/kg, b.i.d.) have a MeST of 30.5 days ranging 23-32 days. In contrast, when Compound 76 is given orally at (30 mg/kg, s.i.d.) the MeST increases to over 120 days, with more than 60% of the treatment group still alive 12 months later (p<0.0001). […] Further experiments were performed using a SCID version of C57BL/6 mice (B6.CB17-Prkdc^scid/SzJ), a mouse model of B6 background, but is immune-compromised.
as §1, with “was” for “was also”

GL261 = assay: brain tumor cell line growth inhibition, GL261; format: cell-based; conditions: GL261, mouse glioblastoma
Method: (§2) These GI50s were determined using standard tumor growth inhibition assays.

GL261 glioma [3] = assay: re-challenge of long term survivor mice with s.c. GL261 cells; format: in vivo, C57BL/6 mice; conditions: 1×10^6 s.c. GL261 cells; mice cured by Compound 76
Excerpt: FIG. 5 is a graph of re-challenge of Compound 76 treated long term survivor mice from FIG. 4B with 1×10^6 s.c. GL261 glioa cells. Age and litter matched controls were implanted.

U87 = assay: brain tumor cell line growth inhibition, U87; format: cell-based; conditions: Homo sapiens, U-87 MG; U87, glioblastoma; astrocytoma
Method: as §2

SK-N-MC = assay: brain tumor cell line growth inhibition, SK-N-MC; format: cell-based; conditions: Homo sapiens, neuroepithelioma
Method: as §2

[4] = plasma and brain exposure after single oral dose; format: in vivo, Male CD-1 Mice; conditions: for Brain Concentrations, Group A, B, C / Plasma Concentrations, Group A, B, C / concentration at 0 h: 0 hr; for Kp: brain and plasma, read-out: AUClast Brain/AUClast Plasma Ratio
Method: […] The concentration of Compound 76 was measured in plasma and in brain tissue homogenates.
Plasma concentrations were measured in mice after oral administration. All doses were formulated in purified water. Four groups of male CD-1 mice were dosed after an overnight fast and fed 4 hours post-dose. Dosing was as follows:
Protein was precipitated with 0.25 mL acetonitrile for plasma, 0.25 mL for brain. After centrifugation, supernatant was directly injected into an LC/MS system. The limit of quantitation was 1 ng/mL using a 50 μL aliquot for plasma and a […] aliquot for brain. The standard curve was 1 to 1,000 ng/mL for both plasma and brain.
HPLC conditions were as follows:
• HPLC System: Shimadzu SCL-10 System • Analytical Column: Aquasil C18 5 μm 100×2 mm column. • Column Temperature: Ambient temperature • Autosampler Temperature: Ambient temperature • Mobile Phase • A) 10 mM Ammonium formate in water (pH 4). • B) Acetonitrile. • Flow Rate: 0.6 mL/min • Injection Volume: 2 μL

SK-N-FI = assay: brain tumor cell line growth inhibition, SK-N-FI; format: cell-based; conditions: Homo sapiens, neuroblastoma
Method: as §2

Daoy = assay: brain tumor cell line growth inhibition, Daoy; format: cell-based; conditions: Homo sapiens, desmoplastic cerebellar medulloblastoma
Method: as §2

[5] = PO 10 mg/kg (Group 3), single values
[6] = PO 50 mg/kg (Group 4), single values
[7] = male, CD-1, mouse, brain, po, 10 mg/kg, PO 10 mg/kg (Group 3), BLQ = 0, read-out: Brain Concentrations, Mean
[8] = male, CD-1, mouse, brain, po, 50 mg/kg, PO 50 mg/kg (Group 4), read-out: Brain Concentrations, Mean
[9] = male, CD-1, mouse, plasma, po, 10 mg/kg, PO 10 mg/kg (Group 3), read-out: Plasma Concentrations, Mean
[10] = male, CD-1, mouse, plasma, po, 50 mg/kg, PO 50 mg/kg (Group 4), read-out: Plasma Concentrations, Mean
[11] = male, CD-1, mouse, po, Brain, single dose of 50 mg/kg (Group 4)
[12] = male, CD-1, mouse, po, Plasma, single dose of 50 mg/kg (Group 4)
[13] = male, CD-1, mouse, Brain, single oral dose of 10 mg/kg
[14] = male, CD-1, mouse, Plasma, single oral dose of 10 mg/kg

O=C(Cc1ccc(-c2ccc(N3CCOCC3)cc2)cn1)NCc1cccc(F)c1 [Compound 76]
effect on intracellular survivin (survivin): increased expression and altered the localization of intracellular survivin | Average weight at endpoint ([1]; 15 mg/kg): 16.9 g | Average weight at endpoint ([1]; 30 mg/kg): 15.0 g | median survival time (MeST), range (GL261 glioma [2]): 29 to 75 days | tumor reoccurrence by MRI (GL261 glioma [2]; after drug was discontinued): tumor reoccurrence; also recorded: all proceeded to develop lethal GL261 gliomas | long term survivors (GL261 glioma [2]; oral 30 mg/kg once daily): no long term survivors | median survival time (MeST) (GL261 glioma [2]; oral 30 mg/kg once daily, 30 mg/kg): 29 days and 40 days | IC50 (GL261): 8.8 nM | second GL261 tumor challenge in long term survivors (GL261 glioma [3]): rejected the second GL261 tumor challenge; also recorded: rejected a second GL261 tumor implant challenge | IC50 (U87): 9.7 nM | IC50 (SK-N-MC): 0.13 nM | AUClast ([4]; Brain, single dose of 50 mg/kg (Group 4)): 3338 ng·h/g | AUClast ([4]; Brain, single oral dose of 10 mg/kg): 656 ng·h/g | Brain Concentrations, Group A, B, C [4, 5]: BLQ (Below Limit of Quantitation (1 ng/mL)) | Plasma Concentrations, Group A, B, C [4, 5]: BLQ (Below Limit of Quantitation (1 ng/mL)) | Brain Concentrations, Group A, B, C [4, 6]: BLQ (Below Limit of Quantitation (1 ng/mL)) | Plasma Concentrations, Group A, B, C [4, 6]: BLQ (Below Limit of Quantitation (1 ng/mL)) | Kp ([4]; male, CD-1, mouse, oral 10 mg/kg): 0.76 | Kp ([4]; male, CD-1, mouse, oral 50 mg/kg): 0.61 | concentration at 0 h [4, 7]: 0 ng/g | concentration at 0.5 h ([4]; male, CD-1, mouse, brain, po, 10 mg/kg, PO 10 mg/kg (Group 3), 0.5 hr, read-out: Brain Concentrations, Mean): 99.8 ng/g | concentration at 1 h ([4]; male, CD-1, mouse, brain, po, 10 mg/kg, PO 10 mg/kg (Group 3), 1 hr, read-out: Brain Concentrations, Mean): 279 ng/g | concentration at 1 h ([4]; male, CD-1, mouse, brain, po, 10 mg/kg, PO 10 mg/kg (Group 3), 1 hr, single values, read-out: Brain Concentrations, Group A, B, C): 228 ng/g | concentration at 2 h ([4]; male, CD-1, mouse, brain, po, 10 mg/kg, PO 10 mg/kg (Group 3), read-out: Brain Concentrations, Mean): 175 ng/g | concentration at 5 h [4, 7]: 31.8 ng/g | concentration at 5 h ([4]; male, CD-1, mouse, brain, po, 10 mg/kg, PO 10 mg/kg (Group 3), single values, read-out: Brain Concentrations, Group A, B, C): 47.5 ng/g | concentration at 0 h ([4]; male, CD-1, mouse, brain, po, 50 mg/kg, PO 50 mg/kg (Group 4), BLQ = 0, read-out: Brain Concentrations, Mean): 0 ng/g | concentration at 0.5 hr ([4]; male, CD-1, mouse, brain, po, 50 mg/kg, PO 50 mg/kg (Group 4), 0.5 hr, read-out: Brain Concentrations, Mean): 1380 ng/g | concentration at 1 hr ([4]; male, CD-1, mouse, brain, po, 50 mg/kg, PO 50 mg/kg (Group 4), 1 hr, read-out: Brain Concentrations, Mean): 1100 ng/g | concentration at 2 h [4, 8]: 758 ng/g | concentration at 5 h [4, 8]: 207 ng/g | concentration at 0 h ([4]; male, CD-1, mouse, plasma, po, 10 mg/kg, PO 10 mg/kg (Group 3), BLQ = 0, read-out: Plasma Concentrations, Mean): 0 ng/mL | concentration at 0.5 h ([4]; male, CD-1, mouse, plasma, po, 10 mg/kg, PO 10 mg/kg (Group 3), 0.5 hr, read-out: Plasma Concentrations, Mean): 148 ng/mL | concentration at 1 h ([4]; male, CD-1, mouse, plasma, po, 10 mg/kg, PO 10 mg/kg (Group 3), 1 hr, read-out: Plasma Concentrations, Mean): 426 ng/mL | concentration at 2 h [4, 9]: 205 ng/mL | concentration at 5 h [4, 9]: 40 ng/mL | concentration at 0 h ([4]; male, CD-1, mouse, plasma, po, 50 mg/kg, PO 50 mg/kg (Group 4), BLQ = 0, read-out: Plasma Concentrations, Mean): 0 ng/mL | concentration at 0.5 h ([4]; male, CD-1, mouse, plasma, po, 50 mg/kg, PO 50 mg/kg (Group 4), 0.5 hr, read-out: Plasma Concentrations, Mean): 1800 ng/mL | concentration at 0.5 h ([4]; male, CD-1, mouse, plasma, po, 50 mg/kg, PO 50 mg/kg (Group 4), 0.5 hr, single values, read-out: Plasma Concentrations, Group A, B, C): 1490 ng/mL | concentration at 1 h ([4]; male, CD-1, mouse, plasma, po, 50 mg/kg, PO 50 mg/kg (Group 4), 1 hr, read-out: Plasma Concentrations, Mean): 2140 ng/mL | concentration at 2 h [4, 10]: 1300 ng/mL | concentration at 5 h [4, 10]: 230 ng/mL | Cmax [4, 11]: 1380 ng/g | Tmax [4, 11]: 0.5 h | AUC(0-t) [4, 12]: 5440 ng·h/mL | Cmax [4, 12]: 2140 ng/mL | Tmax [4, 12]: 1 h | Cmax [4, 13]: 279 ng/g | Tmax [4, 13]: 1 h | AUC(0-t) [4, 14]: 863 ng·h/mL | Cmax [4, 14]: 426 ng/mL | Tmax [4, 14]: 1 h | brain penetration from plasma ([4]; single oral dose of 10 mg/kg): 76% | IC50 (SK-N-FI): 0.46 nM | IC50 (Daoy): 54.9 nM
